Reference: ChEMBL document CHEMBL5584246, “Novel dihydropyrimidines as promising EGFR & HER2 inhibitors: Insights from experimental and computational studies” (Eur J Med Chem, 2024)
Values belong to the molecule of their own block, whether it stands above or below them.

Tests used:
MCF7 = assay: Cytotoxicity against human MCF7 cells assessed as inhibition of cell growth measured after 3 days by MTT assay; type: functional, cell-based; settings: MCF7, 72 h
[1] = Cytotoxicity against African green monkey Vero cells assessed as inhibition of cell growth measured after 3 days by MTT assay; type: toxicity, cell-based; settings: African green monkey (Chlorocebus sabaeus)
[2] = Inhibition of EGFR expression in human MCF7 cells assessed as negative expression region (M1) at 25 nM incubated for 24 hrs by flow cytometry analysis (reference value: 0.66%); type: functional
[3] = Inhibition of EGFR expression in human MCF7 cells assessed as negative expression region (M1) at 50 nM incubated for 24 hrs by flow cytometry analysis (reference value: 0.66%); type: functional
[4] = Inhibition of EGFR expression in human MCF7 cells assessed as negative expression region (M1) at 100 nM incubated for 24 hrs by flow cytometry analysis (reference value: 0.66%); type: functional
[5] = Inhibition of EGFR expression in human MCF7 cells assessed as negative expression region (M1) at 500 nM incubated for 24 hrs by flow cytometry analysis (reference value: 0.66%); type: functional
[6] = Inhibition of EGFR expression in human MCF7 cells assessed as negative expression region (M1) at 1000 nM incubated for 24 hrs by flow cytometry analysis (reference value: 0.66%); type: functional
[7] = Inhibition of EGFR expression in human MCF7 cells assessed as positive expression region (M2) at 25 nM incubated for 24 hrs by flow cytometry analysis (reference value: 99.36%); type: functional
[8] = Inhibition of EGFR expression in human MCF7 cells assessed as positive expression region (M2) at 50 nM incubated for 24 hrs by flow cytometry analysis (reference value: 99.36%); type: functional
[9] = Inhibition of EGFR expression in human MCF7 cells assessed as positive expression region (M2) at 100 nM incubated for 24 hrs by flow cytometry analysis (reference value: 99.36%); type: functional
[10] = Inhibition of EGFR expression in human MCF7 cells assessed as positive expression region (M2) at 500 nM incubated for 24 hrs by flow cytometry analysis (reference value: 99.36%); type: functional
[11] = Inhibition of EGFR expression in human MCF7 cells assessed as positive expression region (M2) at 1000 nM incubated for 24 hrs by flow cytometry analysis (reference value: 99.36%); type: functional
[12] = Inhibition of HER2 expression in human MCF7 cells assessed as negative expression region (M1) at 25 nM incubated for 24 hrs by flow cytometry analysis (reference value: 0.98%); type: functional
[13] = Inhibition of HER2 expression in human MCF7 cells assessed as negative expression region (M1) at 50 nM incubated for 24 hrs by flow cytometry analysis (reference value: 0.98%); type: functional
[14] = Inhibition of HER2 expression in human MCF7 cells assessed as negative expression region (M1) at 100 nM incubated for 24 hrs by flow cytometry analysis (reference value: 0.98%); type: functional
[15] = Inhibition of HER2 expression in human MCF7 cells assessed as negative expression region (M1) at 500 nM incubated for 24 hrs by flow cytometry analysis (reference value: 0.98%); type: functional
[16] = Inhibition of HER2 expression in human MCF7 cells assessed as negative expression region (M1) at 1000 nM incubated for 24 hrs by flow cytometry analysis (reference value: 0.98%); type: functional
[17] = Inhibition of HER2 expression in human MCF7 cells assessed as positive expression region (M2) at 25 nM incubated for 24 hrs by flow cytometry analysis (reference value: 99.09%); type: functional
[18] = Inhibition of HER2 expression in human MCF7 cells assessed as positive expression region (M2) at 50 nM incubated for 24 hrs by flow cytometry analysis (reference value: 99.09%); type: functional
[19] = Inhibition of HER2 expression in human MCF7 cells assessed as positive expression region (M2) at 100 nM incubated for 24 hrs by flow cytometry analysis (reference value: 99.09%); type: functional
[20] = Inhibition of HER2 expression in human MCF7 cells assessed as positive expression region (M2) at 500 nM incubated for 24 hrs by flow cytometry analysis (reference value: 99.09%); type: functional
[21] = Inhibition of HER2 expression in human MCF7 cells assessed as positive expression region (M2) at 1000 nM incubated for 24 hrs by flow cytometry analysis (reference value: 99.09%); type: functional
[22] = target: Epidermal growth factor receptor (Homo sapiens, UniProt P00533); assay: Inhibition of wild type EGFR (unknown origin) incubated for 40 mins in presence of ATP by kinase glo max assay
Epidermal growth factor receptor, sequence (P00533 whole entry): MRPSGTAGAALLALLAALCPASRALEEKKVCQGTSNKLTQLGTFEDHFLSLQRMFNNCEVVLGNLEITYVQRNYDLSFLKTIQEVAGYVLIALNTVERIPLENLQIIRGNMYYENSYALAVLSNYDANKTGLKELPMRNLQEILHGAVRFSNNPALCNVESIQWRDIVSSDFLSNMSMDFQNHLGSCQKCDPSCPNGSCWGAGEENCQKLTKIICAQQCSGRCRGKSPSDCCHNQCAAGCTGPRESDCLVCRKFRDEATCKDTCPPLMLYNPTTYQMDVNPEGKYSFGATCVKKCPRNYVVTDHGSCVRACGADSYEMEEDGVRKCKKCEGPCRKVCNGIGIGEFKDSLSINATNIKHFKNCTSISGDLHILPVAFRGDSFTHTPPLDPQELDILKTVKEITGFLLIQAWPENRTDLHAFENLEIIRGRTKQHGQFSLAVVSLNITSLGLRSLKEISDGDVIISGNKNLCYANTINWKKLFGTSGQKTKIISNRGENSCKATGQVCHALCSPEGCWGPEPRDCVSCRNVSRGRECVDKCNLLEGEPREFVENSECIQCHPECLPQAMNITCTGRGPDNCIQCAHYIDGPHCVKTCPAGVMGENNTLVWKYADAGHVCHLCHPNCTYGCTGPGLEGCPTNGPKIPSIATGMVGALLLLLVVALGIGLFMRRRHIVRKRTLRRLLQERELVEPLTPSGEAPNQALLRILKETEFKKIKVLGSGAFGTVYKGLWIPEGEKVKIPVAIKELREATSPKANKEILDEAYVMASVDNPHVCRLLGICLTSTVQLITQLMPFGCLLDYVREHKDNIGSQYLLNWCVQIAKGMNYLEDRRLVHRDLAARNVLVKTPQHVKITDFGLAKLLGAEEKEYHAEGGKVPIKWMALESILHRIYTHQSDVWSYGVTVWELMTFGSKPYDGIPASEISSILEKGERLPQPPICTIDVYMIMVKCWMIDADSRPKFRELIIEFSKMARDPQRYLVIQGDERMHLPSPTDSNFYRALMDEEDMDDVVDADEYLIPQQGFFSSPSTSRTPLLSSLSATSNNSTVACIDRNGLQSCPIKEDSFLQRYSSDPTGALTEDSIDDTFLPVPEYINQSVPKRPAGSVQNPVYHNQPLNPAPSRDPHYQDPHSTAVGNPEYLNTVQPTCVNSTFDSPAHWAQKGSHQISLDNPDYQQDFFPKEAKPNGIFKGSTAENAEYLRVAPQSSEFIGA

Structure (SMILES): COc1ccc(NC(=O)C2=C(C)NC(=O)NC2/C=C\c2ccccc2)c(OC)c1 (stereo not given)
IC50 (MCF7): 19.3 µM
IC50 at 3 days [1]: 30.4 µM

Structure (SMILES): COc1ccc(NC(=O)C2=C(C)NC(=S)NC2c2cccc(O)c2)c(OC)c1 (stereo not given)
IC50 (MCF7): 34.8 µM
IC50 at 3 days [1]: 69.2 µM

Structure (SMILES): COc1ccc(C2NC(=O)NC(C)=C2C(=O)Nc2ccc(OC)cc2OC)cc1 (stereo not given)
IC50 (MCF7): 24.3 µM
IC50 at 3 days [1]: 56.2 µM

Structure (SMILES): COc1ccc(NC(=O)C2=C(C)NC(=O)NC2c2ccc(O)c(OC)c2)c(OC)c1 (stereo not given)
IC50 (MCF7): 16.1 µM
IC50 at 3 days [1]: 42.9 µM

Structure (SMILES): COc1ccc(NC(=O)C2=C(C)NC(=S)NC2c2ccc(OC)c(OC)c2)c(OC)c1 (stereo not given)
IC50 (MCF7): 17.3 µM
IC50 at 3 days [1]: 43.9 µM

Structure (SMILES): COc1ccc(NC(=O)C2=C(C)NC(=S)NC2c2ccc(Br)cc2)c(OC)c1 (stereo not given)
IC50 (MCF7): 37.5 µM
IC50 at 3 days [1]: 61.2 µM

Structure (SMILES): COc1ccc(NC(=O)C2=C(C)NC(=O)NC2c2ccccc2[N+](=O)[O-])c(OC)c1 (stereo not given)
IC50 (MCF7): 40.1 µM
IC50 at 3 days [1]: 55.3 µM

IC50 [22]: 0.0698 µM
Structure (SMILES): COc1ccc(NC(=O)C2=C(C)NC(=O)NC2c2ccc(OC)c(OC)c2)c(OC)c1 (stereo not given)
IC50 (MCF7): 14.2 µM
IC50 at 3 days [1]: 30.1 µM
inhibition at 0.025 µM [2]: 18.1%
inhibition at 0.05 µM [3]: 40.2%
inhibition at 0.1 µM [4]: 68.3%
inhibition at 0.5 µM [5]: 94.4%
inhibition at 1 µM [6]: 96.7%
inhibition at 0.025 µM [7]: 82.2%
inhibition at 0.05 µM [8]: 60%
inhibition at 0.1 µM [9]: 32.5%
inhibition at 0.5 µM [10]: 5.73%
inhibition at 1 µM [11]: 3.42%
inhibition at 0.025 µM [12]: 32.7%
inhibition at 0.05 µM [13]: 63.8%
inhibition at 0.1 µM [14]: 79.3%
inhibition at 0.5 µM [15]: 89.9%
inhibition at 1 µM [16]: 93.4%
inhibition at 0.025 µM [17]: 67.9%
inhibition at 0.05 µM [18]: 36.8%
inhibition at 0.1 µM [19]: 21%
inhibition at 0.5 µM [20]: 10.3%
inhibition at 1 µM [21]: 6.78%

Structure (SMILES): COc1ccc(NC(=O)C2=C(C)NC(=O)NC2c2ccc(C)cc2)c(OC)c1 (stereo not given)
IC50 (MCF7): 33.5 µM
IC50 at 3 days [1]: 60 µM

Structure (SMILES): COc1ccc(NC(=O)C2=C(C)NC(=O)NC2c2cccc(Cl)c2)c(OC)c1 (stereo not given)
IC50 (MCF7): 38.2 µM
IC50 at 3 days [1]: 73.4 µM

Structure (SMILES): COc1ccc(NC(=O)C2=C(C)NC(=O)NC2c2ccc(Cl)cc2Cl)c(OC)c1 (stereo not given)
IC50 (MCF7): 32.4 µM
IC50 at 3 days [1]: 63.5 µM

Structure (SMILES): COc1ccc(NC(=O)C2=C(C)NC(=O)NC2)c(OC)c1
IC50 (MCF7): 81.5 µM
IC50 at 3 days [1]: 87.2 µM

Structure (SMILES): COc1ccc(NC(=O)C2=C(C)NC(=O)NC2c2cccc(Br)c2)c(OC)c1 (stereo not given)
IC50 (MCF7): 31.2 µM
IC50 at 3 days [1]: 48.1 µM

Structure (SMILES): COc1ccc(NC(=O)C2=C(C)NC(=O)NC2c2ccc(N(C)C)cc2)c(OC)c1 (stereo not given)
IC50 (MCF7): 19.5 µM
IC50 at 3 days [1]: 53.1 µM

IC50 [22]: 0.0768 µM
Structure (SMILES): COc1ccc(NC(=O)C2=C(C)NC(=S)NC2c2ccc(OCc3ccccc3)c(OC)c2)c(OC)c1 (stereo not given)
IC50 (MCF7): 17 µM
IC50 at 3 days [1]: 52.9 µM
inhibition at 0.025 µM [2]: 32.1%
inhibition at 0.05 µM [3]: 62.4%
inhibition at 0.1 µM [4]: 80.5%
inhibition at 0.5 µM [5]: 83.2%
inhibition at 1 µM [6]: 96%
inhibition at 0.025 µM [7]: 68.7%
inhibition at 0.05 µM [8]: 38.4%
inhibition at 0.1 µM [9]: 20.1%
inhibition at 0.5 µM [10]: 17.4%
inhibition at 1 µM [11]: 4.17%
inhibition at 0.025 µM [12]: 14.9%
inhibition at 0.05 µM [13]: 42.6%
inhibition at 0.1 µM [14]: 72.1%
inhibition at 0.5 µM [15]: 78.4%
inhibition at 1 µM [16]: 92.7%
inhibition at 0.025 µM [17]: 85.5%
inhibition at 0.05 µM [18]: 57.8%
inhibition at 0.1 µM [19]: 28.3%
inhibition at 0.5 µM [20]: 22.3%
inhibition at 1 µM [21]: 7.42%

Structure (SMILES): COc1ccc(NC(=O)C2=C(C)NC(=O)NC2c2ccc(Br)cc2)c(OC)c1 (stereo not given)
IC50 (MCF7): 31.6 µM
IC50 at 3 days [1]: 49.4 µM

Structure (SMILES): COc1ccc(NC(=O)C2=C(C)NC(=O)NC2c2ccc(Cl)cc2)c(OC)c1 (stereo not given)
IC50 (MCF7): 32.4 µM
IC50 at 3 days [1]: 62.7 µM

Structure (SMILES): COc1ccc(NC(=O)C2=C(C)NC(=S)NC2c2ccc(O)cc2)c(OC)c1 (stereo not given)
IC50 (MCF7): 28.6 µM
IC50 at 3 days [1]: 40 µM

Structure (SMILES): COc1ccc(NC(=O)C2=C(C)NC(=S)NC2c2ccc(C)cc2)c(OC)c1 (stereo not given)
IC50 (MCF7): 38.2 µM
IC50 at 3 days [1]: 53.6 µM
